For this data set the following is noted: Liquid, Ebulliometric method (Recirculating still).

From the NIST ThermoML archive (doi:10.1021/acs.jced.7b01021) come the findings set out here.

For orientation: vapor or sublimation pressure means the pressure of vapour in equilibrium with the condensed phase.

± gives the expanded uncertainty stated by the source.

For the molecule `Clc1ccccc1` [chlorobenzene], the “vapor or sublimation pressure” value (404.8 K) stood at 101.33 ± 0.71 kPa.

As for `CC(=O)OC(C)(C)C` [1,1-dimethylethyl ethanoate], for the setting “371.05 K”, the “vapor or sublimation pressure” value was determined as 101.33 ± 0.71 kPa.

In the case of `CC(C)(C)O` [2-methylpropan-2-ol], the “vapor or sublimation pressure” value (355.59 K) is reported as 101.33 ± 0.71 kPa.
